Assay [1] has as its system HCT116p53+/+ cells. The assay is described as follows: Clonogenic assay (CFA) after γ-irradiation, HCT116 p53+/+. The format is cell-based. The following applies: 20 μM peptide, γ radiation 0-8 Gray, colonies counted after two weeks. As to the method: (§1) One hundred HeLa cells or 500 HCT116p53^+/+ or 500 HCT116p53^−/− cells were seeded in 8.5 cm plates and after 24 hours later treated or not with TAT or TAT-RasGAP317-326 (20 μM) prior exposure to the various doses of γ radiation (0, 1, 2, 4, 6 or 8 Gray).
(§2) After two weeks, the culture medium was removed and the plates were gently washed with water. A crystal violet solution (0.5% crystal violet in 25% methanol) was then added to stain colonies and gently washed out with water. The number of colonies was then counted.
(§3) The clonogenic formation assay (CFA) was performed using cancer cell lines (HCT116 with or without p53) (FIG. 1A-B) and non-tumorigenic HaCaT cells (FIG. 1C) that were subjected to the various doses of γ radiation (0, 1, 2, or 4, Gray), in the presence or in absence of TAT-RasGAP317-326 (20 μM). The number of colonies was determined two weeks after irradiation.

Assay [2] has as its system HCT116p53−/− cells. The assay is described as follows: Clonogenic assay (CFA) after γ-irradiation, HCT116 p53-/-. The settings on record: 20 μM peptide, γ radiation 0-8 Gray, colonies counted after two weeks. The format is cell-based. The method, then:
as §1, §2, §3

Assay [3] has as its system HCT116 p53−/− tumors. The assay can be described thus: Radio-sensitization in mice bearing HCT116 p53-/- xenografts. The format is in vivo. The settings on record: 1 mg/kg i.p. every day for 10 days, γ-irradiation 3 Gy 1 hour after injection, nu/nu mice. The text has this:
(§4) Immunodeficient mice bearing subcutaneous tumors allow easy access of the tumors to defined fractionated irradiation doses with minimal effect on surrounding tissues and without the need of anesthesia. This latter point is important because anesthesia can modify the response to radiation therapy (Denekamp, 1979) and anesthesia is generally not used in patients during radiotherapy.
(§5) HCT116 tumor cells, lacking or not p53, were grafted onto the back of female Swiss homozygous nu/nu mice leading to the development of subcutaneous tumors. Then, the immunodeficient mice bearing subcutaneous tumors were divided into four experimental groups as follows:
(§6) 1) Intraperitoneal PBS injections and no irradiation. 2) Intraperitoneal TAT-RasGAP317-326 injections (every day, 1 mg peptide per kg of mouse in 300 μl PBS) and no irradiation. 3) Intraperitoneal PBS injection and γ-irradiation (3 Gy). 4) Intraperitoneal TAT-RasGAP317-326 injections and γ-irradiation.
(§7) The treatments (i.e. peptide injections followed by irradiation) were performed every day for 10 days without interruption. γ-irradiation was performed 1 hour after the peptide injection. The size of the tumors was monitored 3 times a week. #: mice were sacrificed when the tumors reached a volume of about 800 mm^3.

Assay [4] concerns HaCaT cells. The assay is described as follows: Clonogenic assay (CFA) after γ-irradiation, non-tumorigenic HaCaT. The settings on record: 20 μM peptide, γ radiation 0, 1, 2 or 4 Gray, colonies after two weeks. The format is cell-based. As to the method:
as §2, §3

The test system of assay [5] is HCT116 xenografts. The assay is described as follows: Radio-sensitization in mice bearing HCT116 xenografts. The following applies: 1 mg/kg i.p. every day for 10 days, γ-irradiation 3 Gy 1 hour after injection, nu/nu mice. The format is in vivo.
Description: as §4, §5, §6, §7

Assay [6] deals with tumor cells. The following applies: cited from earlier work.
Assay [7] concerns tumor growth. The settings on record: cited from earlier work.

“Also recorded” adds a separate entry of the source.

For the substance “TAT-RasGAP317-326: HIV-TAT48-57 peptide conjugated to RasGAP317-326 (WMWVTNLRTD) with two glycine residues as spacer; cell permeable peptide (GRKKRRQRRRGGWMWVTNLRTD)”, the “efficacy of γ-irradiation-mediated cell killing (number of colonies)” value in assay [1] and in assay [2] was “increases the efficacy of γ-irradiation-mediated cell killing” throughout. Besides, the “growth of irradiated HCT116 p53−/− tumors” value in assay [3] is reported as “very efficiently hampered”. The “γ-radiation-sensitivity of non-cancer cells (number of colonies)” value in assay [4] was “not in a non-cancer cell line; also recorded: no influence on the γ-radiation-sensitivity”. Further, in assay [5], the “tumor growth / tumor volume of irradiated tumors” value was “significant growth delay and reduction in tumor volume”. For the same substance, in assay [6] (non-tumor cells), the “sensitization of non-tumor cells to genotoxin-induced apoptosis” value is listed as “nor does it sensitize non-tumor cells”. In assay [6] (peptide by itself), the “apoptosis of tumor cells by the peptide alone” value is given as “does not by itself modulate apoptosis of tumor cells”. The “sensitization of tumor cells to genotoxin-induced death” value in assay [6] (tumor cells with genotoxin) is given as “specifically sensitizes tumor cells to genotoxin-induced death”. Moreover, in assay [7] (combined with genotoxins), the “ability of cisplatin and other genotoxins to inhibit tumor growth” value is “increases the ability of cisplatin and other genotoxins to inhibit tumor growth”. Further, in assay [7] (mouse, in vivo), the “dose still exerting genotoxin-sensitization on tumor growth, relative to lethal doses” value is listed as > 100 fold below the lethal doses.
